Measurements published in patent US6982258B2, “Low-calcemic oxime analogs of 1α,25-dihydroxy vitamin D3” (Cytochroma Inc., priority 2001, dated 2006).

Tests used:
[1] = target: T1, CYP24 (Homo sapiens, UniProt Q07973); test: CYP24 enzyme assay (induced HPK1A-ras cells); assay type: cell-based; details: ketoconazole as control standard
T1 construct: When the HPK1A-ras cells were 80-90% confluent, add 1 μL 10^−5 M 1,25(OH)2D3; endogenous in cells; host or cells: HPK1A-ras cells induced with 10^-8 M 1,25(OH)2D3
T1 sequence (Q07973 36-514): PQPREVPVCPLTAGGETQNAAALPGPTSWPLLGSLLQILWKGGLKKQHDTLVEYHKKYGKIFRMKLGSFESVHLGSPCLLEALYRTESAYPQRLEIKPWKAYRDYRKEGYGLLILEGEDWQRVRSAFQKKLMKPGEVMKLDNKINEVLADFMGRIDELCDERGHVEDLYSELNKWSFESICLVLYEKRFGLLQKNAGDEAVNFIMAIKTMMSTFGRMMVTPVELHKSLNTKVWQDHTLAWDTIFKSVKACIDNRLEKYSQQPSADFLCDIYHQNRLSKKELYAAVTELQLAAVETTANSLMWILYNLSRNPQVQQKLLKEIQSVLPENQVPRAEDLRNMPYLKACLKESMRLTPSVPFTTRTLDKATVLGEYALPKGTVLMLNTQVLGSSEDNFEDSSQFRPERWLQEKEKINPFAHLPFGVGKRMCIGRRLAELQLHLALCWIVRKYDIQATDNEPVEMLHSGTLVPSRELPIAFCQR
Experimental: CYP24 Enzyme Assay (Induced […] Cells)
• 1,25(OH)2D3 10^−5 M • [^3H]-1,25(OH)2D3 25,000 CPM/μL • HPK1A-ras cells • 48-well plate • Methanol • Dichlorimethane • Saturated KCI:KCI 30 g, H2O400 ml (ii) Procedure: • 1. Induction of HPK1A-ras cells (The day before assay) • When the HPK1A-ras cells were 80-90% confluent, add 1 μL 10^−5 M 1,25(OH)2D3 to 1 mL medium in the plate (final concentration is 10^−8 M). • 2. Preparation of cell suspension • After 18 to 20 hours induction, removed the medium and washed the cell twice with PBS. Then tripsinized the cells from plate, centrifuge (2,000 rpm, 5 min) and suspended cells pellet in DMEM medium+1% BSA. • Counted the cells and adjust cells density to 250,000/150 μL, add 150 μL cell suspension to each well in 48-well plate. (including 3 wells as no cell control, and 3 well cells without drug or inhibitor as control). • 3. Added 25 μL ketoconazole (final concentration 10^−5 M, 10^−6 M, 10^−7 M, 10^−8 M) or drugs into each designated well. Keep the plate in 37° C. for 10 min. • 4. Preparation of substrate • Took certain amount of DMEM+1% BSA medium (25*Well number+200)μL to a tube, added certain amount of ^3H-1,25(OH)2D3 (well number+2) μL and certain amount of 100 mM DPPD (well number/5)μL and mixed them by vortex. • 5. Incubation • Added 25 μL substrate to each well, incubated the plate at 37° C. for 3 hour. • Added 25 μL substrate to counting plate (2 well) as a total count. • 6. Lipid extraction and counting • Added 500 μL methanol to each well to stop the reaction, transfered them to tube • Added 250 μL dichloromethane and vortex. • Added 250 μL dichloromethane and 250 μL saturated KCI, and vortexed. • Centrifuged at 4000 rpm for 5 min. • Transfered 100 μL of aqueous phase (upper phase) to counting plastic counting plate. Added 600 μL of scintillation fluid to each well. Counted the plate in scintillation counter. • 7. Calculation enzyme activity • CPM of cell control after subtraction of CPM of NCC is as 100% enzyme activity. • Enzyme activity=(CPM in test compounds well−CPM in NCC well)/(CPM in Cell control−CPM in NCC well)* 100% • Dilution of Ketoconazole • Stock 10^−2 M
• Dilution of test compounds • Stock 10^−3 M

[2] = Calcium excretion (hypercalcemia assay, rat urine); assay type: in vivo; details: administered orally daily for one week
Experimental: As a measure of their safety in animals, compound of Formula I(a) was administered orally to rats daily for 1 week at a similar dose (0.5 microgram/Kg body weight) to calcitriol, using a procedure described previously (Posner G. H. et al. J. Med. Chem. 1999, 42, 3425-3435). A graph showing the effect of compound I(a) (indicated as BH 1625(NOH)) on calcium levels in rat urine in comparison to calcitriol (1α,25-Dihydroxy vitamin D3) is shown in FIG. 6.

SMILES	inhibition of CYP24 activity compared to ketoconazole [1]	levels of calcium in the urine [2]
C=C1/C(=C\C=C2/CCC[C@]3(C)C([C@H](C)CCC/C(=N\O)C(C)(C)C)=CC[C@@H]23)C[C@@H](O)C[C@@H]1O [I(a)]	significantly greater inhibition of CYP24 than ketoconazole	
C=C1/C(=C\C=C2/CCC[C@]3(C)C([C@H](C)CCC/C(=N\OC)C(C)(C)C)=CC[C@@H]23)C[C@@H](O)C[C@@H]1O [I(c)]	significantly greater inhibition of CYP24 than ketoconazole	
C=C1/C(=C\C=C2/CCC[C@]3(C)C([C@H](C)CCC/C(=N\OCC)C(C)(C)C)=CC[C@@H]23)C[C@@H](O)C[C@@H]1O [I(e)]	significantly greater inhibition of CYP24 than ketoconazole	
C=CCO/N=C(\CCC[C@@H](C)C1=CC[C@H]2/C(=C/C=C3/C[C@@H](O)C[C@H](O)C3=C)CCC[C@]12C)C(C)(C)C [I(g)]	significantly greater inhibition of CYP24 than ketoconazole	
C=C1/C(=C\C=C2/CCC[C@]3(C)C([C@H](C)CCC/C(=N\Oc4ccccc4)C(C)(C)C)=CC[C@@H]23)C[C@@H](O)C[C@@H]1O [I(i)]	significantly greater inhibition of CYP24 than ketoconazole	
C=C1/C(=C\C=C2/CCC[C@]3(C)[C@@H]([C@H](C)CCCC(C)(C)O)CC[C@@H]23)C[C@@H](O)C[C@@H]1O [calcitriol, 1α,25-Dihydroxy vitamin D3]		significant increase in calcium levels in the urine
